These results are taken from US20160051665A1, “INDUCTION OF IMMUNE RESPONSE” (priority 2010, published 2016).

Molecules are shown by their SMILES.

For one test, the target named is T1, glucosidase I (Homo sapiens, UniProt Q13724).
T1 sequence (Q13724 1-837): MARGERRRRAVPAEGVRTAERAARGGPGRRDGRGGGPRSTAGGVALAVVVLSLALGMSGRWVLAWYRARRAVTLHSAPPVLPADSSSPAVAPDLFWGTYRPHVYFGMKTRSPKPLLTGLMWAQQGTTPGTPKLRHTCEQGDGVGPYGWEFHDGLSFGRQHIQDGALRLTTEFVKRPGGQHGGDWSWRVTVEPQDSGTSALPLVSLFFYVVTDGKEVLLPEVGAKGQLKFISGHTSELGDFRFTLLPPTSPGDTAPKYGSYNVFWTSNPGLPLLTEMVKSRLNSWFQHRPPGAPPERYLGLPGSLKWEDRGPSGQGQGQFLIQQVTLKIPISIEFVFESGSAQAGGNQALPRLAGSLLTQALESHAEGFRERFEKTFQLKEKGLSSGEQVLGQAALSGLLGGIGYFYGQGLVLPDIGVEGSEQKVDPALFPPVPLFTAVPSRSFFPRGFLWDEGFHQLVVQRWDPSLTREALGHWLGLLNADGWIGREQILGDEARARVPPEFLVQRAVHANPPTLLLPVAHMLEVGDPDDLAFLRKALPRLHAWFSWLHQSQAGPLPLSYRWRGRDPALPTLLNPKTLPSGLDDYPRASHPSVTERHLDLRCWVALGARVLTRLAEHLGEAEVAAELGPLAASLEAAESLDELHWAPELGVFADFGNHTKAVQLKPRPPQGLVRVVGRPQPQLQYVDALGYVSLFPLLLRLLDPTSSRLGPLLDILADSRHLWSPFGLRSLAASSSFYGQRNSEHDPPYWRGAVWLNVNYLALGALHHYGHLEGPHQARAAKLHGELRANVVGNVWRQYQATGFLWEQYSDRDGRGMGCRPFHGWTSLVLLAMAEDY
Particulars: cited from earlier work.

The subject of test [1] is HBV-containing HepG2.2.15 cells. The test can be described thus: interferon-γ ELISpot: peptide-primed CTLs against BuCas-treated target cells. The format is cell-based, human. Particulars: BuCas 1 mg/ml twice at 3 day interval, FIG. 2B. As for the experimental part:
Heparinized blood from healthy HLA-A2 donors was purchased from Research Blood Components, LLC, (Brighton, Mass.). Peripheral blood mononuclear cells were purified and cultured as described (13, 21). After initial stimulation with synthetic peptide, T cells were re-stimulated with CD4/CD8 T cell depleted autologous monocytes pulsed with synthetic peptide at 10 μg/ml for 5 days. IL-2 treatment and in vitro re-stimulation were repeated thrice prior to use of in vitro expanded T cells in ELISpot assays.
In vitro expanded CTLs were used as effectors in ELISpot assays to assess antigen stimulated interferon-γ release according to the manufacturer's instructions (BD-Pharmingen, San Jose, Calif.). Target cells were HepG2 human hepatoma cells (HBV negative; American Type Culture Collection) or HBV-containing HepG2.2.15 cells (22). […]
Peptides presented on the surface of a cell in the context of the MHC class I complex should be recognized with high sensitivity upon incubation with cognate peptide-primed CTLs, with specific killing of the target cells. […] Target cell recognition was quantified by interferon-γ ELISpot assay.
The ability of in vitro generated CTLs to recognize and secrete interferon-γ was evaluated by ELISpot assay. […] The P value was calculated from a Student's t-Test analysis of experimental results.

With `CCCC(=O)O[C@H]1CN2CC[C@H](O)[C@@H]2[C@@H](O)[C@H]1O` [BuCas, 6-O-butanoyl castanospermine], on glucosidase I, the “potency as inhibitor of glucosidase I relative to deoxynojirimycin” value is on record as “more potent inhibitors of glucosidase I than deoxynojirimycin”. Further, the “presentation of the D-peptide epitope by target cells” value in test [1] (CTLs primed with D-peptide) is recorded as “increased significantly”. The “presentation of the N-peptide epitope by target cells” value in test [1] (CTLs primed with N-peptide) is given as “reduced”.
